Columns and labels:
[1] = in vivo; cited from earlier work
[2] = test system: presynaptic α-2-adrenoceptor; conditions: cited from earlier work
[3] = test system: 5-HT receptors; conditions: cited from earlier work
[4] = test system: post-synaptic receptors in the hippocampus; conditions: cited from earlier work
[5] = test system: depressed subjects; assay: Antidepressant efficacy with and without concomitant NSAIDs in depressed subjects (HAMD-17); format: in vivo, human; conditions: for HAMD-17 CFB (change from baseline) / Remitters (HAMD-17 score of 7 or less after treatment) / Responders (50% improvement in HAMD-17): end of treatment
Text: To control for a placebo effect, 1045 depressed patients taking placebo were studied. Finally, 1041 depressed subjects taking gepirone-ER were studied. In contrast to the STAR-D study, three measures of efficacy were employed: remitters (HAMD-17 score 7 or less at end of treatment), responders (HAMD-17 50% reduction from baseline score at end of treatment) and HAMD-17 total score (change from baseline at end of treatment). Further, to test a possible dose of NSAID effect, two dose levels were tested: subjects taking any NSAID any time and subjects taking daily aspirin and other NSAIDs.

[6] = test system: depressed patients taking an NSAID; assay: Individual patient cases from the study (Examples 1 and 2), HAMD-17; format: in vivo, human; conditions: Example 2: person taking ibuprofen
Text: The following Examples represent a sampling of the subjects studied:
A person came to a psychiatric clinic complaining of depression. Their symptoms included: depressed mood, insomnia, lack of energy, low sex drive, and mild suicidal thoughts. They also were being treated for cardiac complains and was taking a daily NSAID (aspirin) to improve blood flow. They refused to discontinue their aspirin because their cardiologist had prohibited them from doing so. Their initial HAMD-17 was 26. After 8 weeks of treatment with Gepirone-ER all of their depressive symptoms had been eliminated.
A person came into the same psychiatric clinic complaining of depression. Their symptoms included depressed mood, lethargy, guilt, and trouble waking up early in the morning. They were also being treated by their neurologist for chronic headaches with ibuprofen. They refused to discontinue the ibuprofen because the headaches interfered with their ability to work. Their initial HAMD-17 was 16. […] A further trial of a second SSRI (citalopram) also failed.

[7] = High NSAID (daily aspirin and other NSAIDs)
[8] = High NSAID (daily aspirin and other NSAIDs), listed as fluoxetine
[9] = no NSAID (None), comparison to Any NSAID
[10] = no NSAID (None), comparison to High NSAID
[11] = subjects taking any NSAID any time

## c1cnc(N2CCNCC2)nc1 [1-PP, 1-(2-pyrimidinyl)piperazine]
[1]
  Antidepressant-like characteristics in pre-clinical tests: did not exhibit antidepressant-like characteristics
[2]
  Action at presynaptic α-2-adrenoceptor: antagonist

## CC1(C)CC(=O)N(CCCCN2CCN(c3ncccn3)CC2)C(=O)C1O (stereo not drawn) [3′-OH gepirone]
[3]
  Affinity for 5-HT receptors: significant affinity
[4]
  Agonism at post-synaptic receptors in the hippocampus: full agonism

## CNCCC(Oc1ccc(C(F)(F)F)cc1)c1ccccc1 (stereo not drawn) [Fluoxetine]
[5]; [7]
  HAMD-17 CFB (change from baseline): −9.03
  Remitters (HAMD-17 score of 7 or less after treatment): 27%
  Responders (50% improvement in HAMD-17): 45%
[5]; [8]
  HAMD-17 CFB (change from baseline): −9.04
  Responders (50% improvement in HAMD-17): 45%
[5]; either NSAID dose level, three efficacy measures
  Effect of NSAIDs on antidepressant efficacy: NSAIDs interfere with the antidepressant activity
[5]; [9]
  HAMD-17 CFB (change from baseline): −10.5
  Remitters (HAMD-17 score of 7 or less after treatment): 28.3%
  Responders (50% improvement in HAMD-17): 51%
[5]; [10]
  Remitters (HAMD-17 score of 7 or less after treatment): 32%
  Responders (50% improvement in HAMD-17): 55%
[5]; no NSAID (None), comparison to High NSAID, listed as fluoxetine
  Responders (50% improvement in HAMD-17): 55%
[5]; [11]
  HAMD-17 CFB (change from baseline): −9.57
  Remitters (HAMD-17 score of 7 or less after treatment): 29%
  Responders (50% improvement in HAMD-17): 48%
[6]
  Clinical outcome: no improvement
[6]; initial HAMD-17 16, after 8 weeks of treatment
  HAMD-17 score after treatment: 20
